Assay results from patent publication US20230133037A1, “EXTENDED RELEASE GASTRORETENTIVE FORMULATION AGAINST HELICOBACTER PYLORI” (SOLSTAR PHARMA, priority 2019, published 2023).
≈ marks a conversion by molar mass, not a printed value. Where two headings read alike, the source gives them in different places. Each block holds one compound with its values, some of them ahead of it.

Key:
H. pylori PremSS1 strain = assay: In vivo test of anti-Helicobacter pylori activities; design: species or system C57BL/6 mice; conditions: ARTE/SG 40, Nacinn 40, Amoxicillin 30 mg/kg
Procedure: C57BL/6 mice with SPF («specific pathogen free») status, were housed at the A2 pet store at the University of Bordeaux, in an acclimatization room for 1 week and then transferred to zone of experimentation where the project was conducted.
The H. pylori PremSS1 strain (supplied by Dr Anne Mueller, University of Zurich) was used. The functionality of the cagPAl island was verified in vitro in a coculture model with the gastric epithelial line AGS: induction of a so-called «hummingbird» phenotype.
The mice were force-fed at 6 weeks of age with the H. pylori premSS1 strain. The gavages were carried out 3 consecutive days, with a rich suspension of bacteria (2 to 3 dishes of rich culture for 5 mice). […]
The dishes were incubated at 35° C. in a microaerobic atmosphere and H. pylori was identified by its phenotypic and biochemical characteristics (morphology, urease test, oxidase test). The dishes were read after at least 5 days of incubation. […]
Quantitative PCR: the presence of H. pylori DNA and mouse housekeeping genes is quantified in the extracts by quantitative PCR in real time, by detecting the fluorescence emitted by the neo PCR products formed using Sybr Green™. […]

[1] = Solubility in simulated gastric fluid; assay type: physicochemical; conditions: 0.5 g in 10 mL SGF pH 1.2, 36.5° C.; for appearance of the solution in SGF after 2 hours: 100 rev/min
Procedure: All solutions are incubated at 36.5° C. under mild shaking with (100 rev/min) in a G24 Environmental Incubator Shaker (New Brunswick Scientific Co., N.J., USA).

E. coli = assay: Antibacterial activity of artesunate with different treatments; assay type: cell-based; conditions: 0.2% w/w in medium, start 1.0×10^6 CFU/mL, 18 h at 36.5° C.
Procedure: Practically, a bacterial cryovial is thawed and cultured twice during 18 h at 36.5° C. in 9 mL of broth for activation.

[2] = Water solubility / behaviour in solution; assay type: physicochemical
KG1a cells = assay: Cell growth, resazurin fluorescence assay; assay type: cell-based; conditions: 3 days
Procedure: Cell growth was followed via the resazurin (alamar blue) fluorescence assay. At day −1, cells were seeded in 100 μL media at a density of 4×10^3 cells/well in 96-well plates and incubated overnight at 37° C. […] Cultures were performed during 3 days after the addition of the drugs. At day 3, Resazurin (0.1 mg/mL, Sigma-Aldrich) was added at 20 μL/well, and plates were incubated for 4 h at 37° C., then fluorescence (Aex=529.5 nm, Aem =582 nm) was measured using ClarioStar™ microplate reader. […] Those supposedly selected cells may be used to test for artemisinin sensitivity before and after encapsulation. This first objective, in addition to checking the sensitivity to artesunate (ARTE), is to test the sensitivity to the complex form (ARTE/Starch Glycolate) as well. This provides information on whether the encapsulation process affects the efficiency of ARTE in vitro. The effects of both drugs on the proliferation of 10 AML cell lines and 1 CML cell line was tested. […] ARTE.SG and ARTE have the Same IC50 in 4 Representative Leukemic Cell Lines To further confirm the equivalent efficiency between ARTE and ARTE.SG, the IC50 of both drugs on 4 leukemic cell lines that cover the 3 sensitivity groups described above was calculated.

[3] = design: species or system CD-1 mice; conditions: CD-1, mouse, in vivo
Procedure: The in vivo study was carried out on CD-1 mice (body weight approximately 20 g), and the experimental protocol is conducted according to the Animal Care Committee approval.
After review of the medical records provided by the animal supplier facility, mice are observed during 1 week for their acclimation before the experiment.
After administering the treatments as indicated above, blood samples are collected at 5, 15, 30, 45, 120 and 480 minutes after administration and mice are sacrificed. The plasma is separated by centrifugation and conserved −80° C. before processing.
An amount of 400 μL of plasma is dispersed in 1 mL of acetonitrile to precipitate proteins and agitated during 5 minutes with a vortex before placing the suspensions of the sample in an ultrasonic bath for 1 minute. The precipitated proteins are separated by centrifugation (15000 g, 5 minutes at 16° C.) and the supernatant is collected in a microplate for analysis.

[4] = according to the DrugBank; cited from earlier work
HEL cells = assay: Cell growth, resazurin fluorescence assay; assay type: cell-based; conditions: 2 μM, 3 days
Procedure: (§1) Cell growth was followed via the resazurin (alamar blue) fluorescence assay. At day −1, cells were seeded in 100 μL media at a density of 4×10^3 cells/well in 96-well plates and incubated overnight at 37° C. […] Cultures were performed during 3 days after the addition of the drugs. At day 3, Resazurin (0.1 mg/mL, Sigma-Aldrich) was added at 20 μL/well, and plates were incubated for 4 h at 37° C., then fluorescence (Aex=529.5 nm, Aem =582 nm) was measured using ClarioStar™ microplate reader.
(§2) Those supposedly selected cells may be used to test for artemisinin sensitivity before and after encapsulation. This first objective, in addition to checking the sensitivity to artesunate (ARTE), is to test the sensitivity to the complex form (ARTE/Starch Glycolate) as well. This provides information on whether the encapsulation process affects the efficiency of ARTE in vitro. The effects of both drugs on the proliferation of 10 AML cell lines and 1 CML cell line was tested. Both the drug or the drug/Starch Glycolate complex were used at 2 μM, a dose that has been reported to be very efficient at least in two AML cell lines (MV4-11 and MOLM13). The ARTE/Starch Glycolate in water was prepared fresh every time for each experiment. Frozen (−20° C.) ARTE/Starch Glycolate complex was also tested in parallel to fresh ARTE/Starch Glycolate in each experiment, to evaluate stability after freezing. • a.

U937 cells = assay: Cell growth, resazurin fluorescence assay; assay type: cell-based; conditions: 2 μM, 3 days
Procedure: as §1, §2

HL60 cells = assay: Cell growth, resazurin fluorescence assay; assay type: cell-based; conditions: 2 μM, 3 days
Procedure: as §1, §2

MOLM13 cells = assay: Cell growth, resazurin fluorescence assay; assay type: cell-based; conditions: 2 μM, 3 days
Procedure: as §1, §2

NB4 cells = assay: Cell growth, resazurin fluorescence assay; assay type: cell-based; conditions: 2 μM, 3 days
Procedure: as §1, §2

ML2 cells = assay: Cell growth, resazurin fluorescence assay; assay type: cell-based; conditions: 2 μM, 3 days
Procedure: as §1, §2

THP1 cells = assay: Cell growth, resazurin fluorescence assay; assay type: cell-based; conditions: 2 μM, 3 days
Procedure: as §1, §2

KG1 cells = assay: Cell growth, resazurin fluorescence assay; assay type: cell-based; conditions: 3 days
Procedure: (§3) Cell growth was followed via the resazurin (alamar blue) fluorescence assay. At day −1, cells were seeded in 100 μL media at a density of 4×10^3 cells/well in 96-well plates and incubated overnight at 37° C. […] Cultures were performed during 3 days after the addition of the drugs. At day 3, Resazurin (0.1 mg/mL, Sigma-Aldrich) was added at 20 μL/well, and plates were incubated for 4 h at 37° C., then fluorescence (Aex=529.5 nm, Aem =582 nm) was measured using ClarioStar™ microplate reader. […] Those supposedly selected cells may be used to test for artemisinin sensitivity before and after encapsulation. This first objective, in addition to checking the sensitivity to artesunate (ARTE), is to test the sensitivity to the complex form (ARTE/Starch Glycolate) as well. This provides information on whether the encapsulation process affects the efficiency of ARTE in vitro. The effects of both drugs on the proliferation of 10 AML cell lines and 1 CML cell line was tested. Both the drug or the drug/Starch Glycolate complex were used at 2 μM, a dose that has been reported to be very efficient at least in two AML cell lines (MV4-11 and MOLM13). The ARTE/Starch Glycolate in water was prepared fresh every time for each experiment. Frozen (−20° C.) ARTE/Starch Glycolate complex was also tested in parallel to fresh ARTE/Starch Glycolate in each experiment, to evaluate stability after freezing. • a.

K562 cells = assay: Cell growth, resazurin fluorescence assay; assay type: cell-based; conditions: 3 days
Procedure: as §3

MV4-11 cells = assay: Cell growth, resazurin fluorescence assay; assay type: cell-based; conditions: 3 days
Procedure: as §3

[5] = design: species or system CD-1 mice; conditions: CD-1, mouse, in vivo, po, 200 mg/kg
Procedure: The in vivo study was carried out on CD-1 mice (body weight approximately 20 g), and the experimental protocol is conducted according to the Animal Care Committee approval. After review of the medical records provided by the animal supplier facility, mice are observed during 1 week for their acclimation before the experiment.

H. pylori strains = assay: Minimum inhibitory concentration, agar dilution method; assay type: cell-based; conditions: Helicobacter pylori; about 59 strains, 48 h at 37° C., microaerobic

SMILES: CC1(C)S[C@@H]2[C@H](NC(=O)[C@H](N)c3ccc(O)cc3)C(=O)N2[C@H]1C(=O)O [Amoxicillin]
antibacterial effect by quantitative culture or quantitative PCR (Experiment 1) (H. pylori PremSS1 strain; 7 days of treatment, absence of proton pump inhibitor): no antibacterial effect | antibacterial effect by quantitative culture or quantitative PCR (Experiment 2) (H. pylori PremSS1 strain; 14 days, with Pantoprazole 150 mg/kg): certain antibacterial effect

appearance of the solution in SGF after 12 h [1]: a precipitation is formed at the bottom | solubility in water [2]: only slightly soluble
SMILES: C[C@H]1[C@H](OC(=O)CCC(=O)[O-])O[C@@H]2O[C@@]3(C)CC[C@H]4[C@H](C)CC[C@@H]1[C@@]24OO3.[Na+] [artesunate sodium salt form]
appearance of the solution in SGF after 2 hours [1]: cloudy, but no evident precipitation is observed | bacterial concentration after incubation (reduction from 10^6) (E. coli): 10^4 CFU/mL

appearance of the solution in SGF after 12 h [1]: no change | AUC Area under curve ([3]; iv, 3.5 mg/kg): 507 ± 102 ng·min/mL | Cl Clearance ([3]; iv, 3.5 mg/kg): 415.8 ± 23.9 L/h/kg | Tmax Maximum peak time ([3]; iv, 3.5 mg/kg): 15 min | T½ Apparent plasma half-life ([3]; iv, 3.5 mg/kg): 12 ± 2 min | Cl Clearance ([3]; po, 200 mg/kg): 1457.7 ± 511.6 L/h/kg | Oral Bioavailability F ([3]; po, 200 mg/kg): 8 ± 4% | IC50 (K562 cells; Homo sapiens, K562, 72 h, preliminary): ~8 µM | IC50 (MV4-11 cells; Homo sapiens, MV4-11, 72 h, preliminary): 0.25 to 0.5 µM | time to maximum concentration of DHA (prostate section, printed 'in the brain') [5]: 30 min | MIC50 (H. pylori strains): 20 µg/mL (≈ 52 µM) | MIC90 (H. pylori strains): 80 µg/mL (≈ 208 µM)
SMILES: C[C@@H]1CCC2[C@@H](C)[C@H](OC(=O)CCC(=O)O)OC3O[C@@]4(C)CCC1[C@]32OO4 (stereo partly shown) [untreated artesunate, Artesunate]
sensitivity group (KG1a cells; 2 μM): low sensitivity | IC50 (KG1a cells; Homo sapiens, KG-1a, 72 h, preliminary): ~2 µM | appearance of the solution in SGF after 2 hours [1]: milky appearance, with an important precipitation at the bottom of vial | water solubility [4]: 680 µg/mL (≈ 1770 µM) | sensitivity group (HEL cells): moderately sensitive | sensitivity group (U937 cells): moderately sensitive | sensitivity group (HL60 cells): moderately sensitive | sensitivity group (MOLM13 cells): highly sensitive | sensitivity group (NB4 cells): highly sensitive | sensitivity group (ML2 cells): moderately sensitive | sensitivity group (THP1 cells): highly sensitive | sensitivity group (KG1 cells; 2 μM): moderately sensitive | IC50 (KG1 cells; Homo sapiens, KG-1, 72 h, preliminary): ~1 µM | sensitivity group (K562 cells; 2 μM): low sensitivity | sensitivity group (MV4-11 cells; 2 μM): highly sensitive | bacterial concentration after incubation (reduction from 10^6) (E. coli): no significant change
